Broadly, the Ki is the equilibrium dissociation constant of an inhibitor or competing ligand from its target.

Structures are written as SMILES. Like-named read-outs stand apart in the source and are kept apart here.

This is an account of results in patent publication US8598357B2, “Benzodioxole piperidine compounds” (Hoffmann-La Roche Inc., priority 2011, dated 2013).

The target in assay [1] is D2 receptor (Homo sapiens (Human), UniProt P14416). In words: Radioligand binding assay ([3H]-spiperone) on membranes of HEK293 EBNA cells expressing human D2 receptor. The conditions noted are these: human receptor in HEK293 EBNA cells; 0.7 nM [3H]-spiperone.
Chain of D2 receptor (P14416 whole entry): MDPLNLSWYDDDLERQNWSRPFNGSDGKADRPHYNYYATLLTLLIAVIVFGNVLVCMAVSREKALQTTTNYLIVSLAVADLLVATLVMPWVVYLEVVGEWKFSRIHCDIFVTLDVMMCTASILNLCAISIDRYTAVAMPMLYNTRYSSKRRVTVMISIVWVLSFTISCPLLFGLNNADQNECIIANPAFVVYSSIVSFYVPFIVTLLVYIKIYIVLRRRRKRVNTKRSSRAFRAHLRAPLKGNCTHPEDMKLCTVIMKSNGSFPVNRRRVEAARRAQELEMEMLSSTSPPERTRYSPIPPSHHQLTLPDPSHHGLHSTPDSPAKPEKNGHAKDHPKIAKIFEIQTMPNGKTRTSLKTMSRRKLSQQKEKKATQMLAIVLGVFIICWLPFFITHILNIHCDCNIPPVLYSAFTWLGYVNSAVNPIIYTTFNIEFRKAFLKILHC
Assay [2] has as its target D3 receptor (Homo sapiens (Human), UniProt P35462). The experiment in a line: Radioligand binding assay ([3H]-spiperone) on membranes of HEK293 EBNA cells expressing human D3 receptor. The conditions noted are these: read-out: D3 Ki; human receptor in HEK293 EBNA cells; 0.5 nM [3H]-spiperone.
Description: (§1) HEK293 EBNA cells were transiently transfected with expression plasmids encoding for the human D2 or D3 or for the human 5-HT2A receptor, respectively. The cells were harvested 48 h post-transfection, washed three times with cold PBS and stored at −80° C. prior to use. The pellet was suspended in cold 50 mM Tris-HCl buffer containing 10 mM EDTA (pH 7.4) and was homogenized with a Polytron (Kinematica AG, Basel, Switzerland) for 20-30 sec at 12.000 rpm. After centrifugation at 48.000×g for 30 min at 4° C., the pellet was resuspended in cold 10 mM Tris-HCl buffer containing 0.1 mM EDTA (pH 7.4), homogenized, and centrifuged as above. This pellet was further resuspended in a smaller volume of ice cold 10 mM Tris-HCl buffer containing 0.1 mM EDTA (pH 7.4) and homogenized with a Polytron for 20-30 sec at 12.000 rpm. The protein content of this homogenate was determined with the Bio-Rad (Bradford) Protein Assay (Biorad Laboratories GmbH, München, Germany) according to the instructions of the manufacturer using gamma globulin as the standard. This homogenate was stored at −80° C. in aliquots and thawed immediately prior to use.
(§2) Aliquots of membrane preparations were thawed at RT, resuspended in assay buffer (D2, D3: 50 mM Tris-HCl, 120 mM NaCl, 5 mM MgCl2, 1 mM EDTA, 5 mM KCl, 1.5 mM CaCl2, pH=7.4; 5-HT2A: 50 mM Tris-HCl, 10 mM MgCl2, 1 mM EGTA, pH=7.4), homogenized with a Polytron for 20-30 sec at 12.000 rpm and adjusted to a final concentration of approximately 7.5 μg protein/well (D2, D3) and 15 μg protein/well (5-HT2A), respectively.
(§3) The nonspecific binding was determined with equally composed reaction mixtures in the presence of 10 μM unlabelled spiperone. Per well 45 μl of Microscint 40 (Perkin Elmer, Schwerzenbach, Switzerland) was added, plates for sealed, shaken for 20 min and counted for 3 min on a Topcount Microplate Scintillation Counter (Can berra Packard SA, Ziirich, Switzerland) with quenching correction.
(§4) The CPM value for each duplicate of a concentration of competing compound was averaged (y1), then the % specific binding was calculated according to the equation (((y1−non-specific)/(total binding−non-specific))×100). Graphs were plotted with the % specific binding using XLfit, a curve fitting program that iteratively plots the data using Levenberg-Marquardt algorithm. The single site competition analysis equation used was y=A+((B−A)/(1+((x/C)D))), where y is the % specific binding, A is the minimum y, B is the maximum y, C is the IC50, x is the log 10 of the concentration of the competing compound and D is the slope of the curve (the Hill Coefficient). […] The affinity constant (K) was calculated using the Cheng-Prusoff equation Ki=(IC50/1+([L]/Kd), where [L] is the concentration of radioligand and Kd is the dissociation constant of the radioligand at the receptor as determined by the saturation isotherm.
For assay [3], the target named is 5-HT2A receptor (Homo sapiens (Human), UniProt P28223). The experiment in a line: Radioligand binding assay ([3H]-ketanserin) on membranes of HEK293 EBNA cells expressing human 5-HT2A receptor. The following applies: read-out: 5HT2A Ki.
Description: as §1, §2, §3, §4
[4] abbreviates: human receptor in HEK293 EBNA cells, 1.1 nM [3H]-ketanserin.

Chain of D3 receptor (P35462 whole entry): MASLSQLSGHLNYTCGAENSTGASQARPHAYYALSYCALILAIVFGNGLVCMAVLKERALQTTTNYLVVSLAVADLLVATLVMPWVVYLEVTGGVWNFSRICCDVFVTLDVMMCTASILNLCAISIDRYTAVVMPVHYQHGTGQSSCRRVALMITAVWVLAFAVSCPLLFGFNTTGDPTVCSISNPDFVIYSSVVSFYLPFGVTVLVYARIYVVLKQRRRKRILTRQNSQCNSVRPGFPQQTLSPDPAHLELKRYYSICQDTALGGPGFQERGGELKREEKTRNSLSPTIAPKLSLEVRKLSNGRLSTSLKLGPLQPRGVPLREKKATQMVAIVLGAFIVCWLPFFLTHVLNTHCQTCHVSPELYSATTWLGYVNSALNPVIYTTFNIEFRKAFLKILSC

Turning to `CCC(C)C(=O)N[C@H]1CC[C@H](CCN2CCC(c3cccc4c3OCO4)CC2)CC1` (stereo partly drawn) [Example 51, Trans-N-{4-[2-(4-Benzo[1,3]dioxol-4-yl-piperidin-1-yl)-ethyl]-cyclohexyl}-2-methyl-butyramide], the results for the Ki in assay [1], in assay [2] and in assay [3] were 0.352 µM, 0.0138 µM and 0.025 µM, respectively.

`O=S(=O)(N[C@H]1CC[C@H](CCN2CCC(c3cccc4c3OCO4)CC2)CC1)c1ccc(F)cc1` [Example 71, N-trans-{4-[2-(4-Benzo[1,3]dioxol-4-yl-piperidin-1-yl)-ethyl]-cyclohexyl}-4-fluoro-benzenesulfonamide]: the Ki in assay [1] stood at 0.104 µM; in assay [2], 0.00263 µM; in assay [3] it was 0.0655 µM.

In the case of `O=C(CC1COC1)N[C@H]1CC[C@H](CCN2CCC(c3cccc4c3OCO4)CC2)CC1` [Example 29, Trans-N-{4-[2-(4-Benzo[1,3]dioxol-4-yl-piperidin-1-yl)-ethyl]cyclohexyl}-2-oxetan-3-yl-acetamide], the Ki in assay [1] was 0.258 µM; in assay [2] it was 0.00519 µM; in assay [3] (setting [4]), 0.0219 µM.

Consider `O=C(CC(F)(F)F)N[C@H]1CC[C@H](CCN2CCC(c3cccc4c3OCO4)CC2)CC1` [Example 10, Trans-N-{4-[2-(4-Benzo[1,3]dioxol-4-yl-piperidin-1-yl)-ethyl]-cyclohexyl}-3,3,3-trifluoro-propionamide], for which the Ki in assay [1] was 0.209 µM; in assay [2], 0.00398 µM; in assay [3] (setting [4]) it was 0.0181 µM.

Turning to `O=C(CCC(F)(F)F)N[C@H]1CC[C@H](CCN2CCC(c3cccc4c3OCO4)CC2)CC1` [Example 11, Trans-N-{4-[2-(4-Benzo[1,3]dioxol-4-yl-piperidin-1-yl)-ethyl]-cyclohexyl}-4,4,4-trifluoro-butyramide], the Ki in assay [1] was found to be 0.41 µM; in assay [2] it was 0.00774 µM; in assay [3] (setting [4]) it was 0.032 µM.

On to `CS(=O)(=O)CC(=O)N[C@H]1CC[C@H](CCN2CCC(c3cccc4c3OCO4)CC2)CC1` [Example 55, Trans-N-{4-[2-(4-Benzo[1,3]dioxol-4-yl-piperidin-1-yl)-ethyl]cyclohexyl}-2-methanesulfonyl-acetamide], for which the figures for the Ki in assay [1], in assay [2] and in assay [3] (setting [4]) were 0.165 µM, 0.00463 µM and 0.027 µM, respectively.

`CCC(=O)N[C@H]1CC[C@H](CCN2CCC(c3cccc4c3OCO4)CC2)CC1` [Example 7, Trans-N-{4-[2-(4-Benzo[1,3]dioxol-4-yl-piperidin-1-yl)-ethyl]-cyclohexyl}-propionamide]: the results for the Ki in assay [1], in assay [2] and in assay [3] (setting [4]) were 0.204 µM, 0.00419 µM and 0.0166 µM, respectively.

As to `CO[C@@H]1CC[C@@H](CC(=O)N[C@H]2CC[C@H](CCN3CCC(c4cccc5c4OCO5)CC3)CC2)C1` [Example 30, Trans-N-{4-[2-(4-Benzo[1,3]dioxol-4-yl-piperidin-1-yl)-ethyl]-cyclohexyl}-2-((1R,3R)-3-methoxy-cyclopentyl)-acetamide], the Ki in assay [1] came to 0.331 µM; in assay [2], 0.00529 µM; in assay [3] (setting [4]), 0.0274 µM.

For `Cn1cnc(S(=O)(=O)N[C@H]2CC[C@H](CCN3CCC(c4cccc5c4OCO5)CC3)CC2)c1` [Example 72, 1-Methyl-1H-imidazole-4-sulfonic acid-trans-N-{4-[2-(4-benzo[1,3]dioxol-4-yl-piperidin-1-yl)-ethyl]-cyclohexyl}-amide], the Ki in assay [1] stood at 0.114 µM; in assay [2] it was 0.0124 µM; in assay [3] (setting [4]), 0.0648 µM.

Regarding `CCOCCC(=O)N[C@H]1CC[C@H](CCN2CCC(c3cccc4c3OCO4)CC2)CC1` [Example 44, Trans-N-{4-[2-(4-Benzo[1,3]dioxol-4-yl-piperidin-1-yl)-ethyl]-cyclohexyl}-3-ethoxy-propionamide], the Ki was 0.393 µM in assay [1], 0.00732 µM in assay [2] and 0.055 µM in assay [3] (setting [4]).

Regarding `O=C(Cc1ccc2c(c1)OCO2)N[C@H]1CC[C@H](CCN2CCC(c3cccc4c3OCO4)CC2)CC1` [Example 59, 2-Benzo[1,3]dioxol-5-yl-trans-N-{4-[2-(4-benzo[1,3]dioxol-4-yl-piperidin-1-yl)-ethyl]-cyclohexyl}-acetamide], the Ki amounted to 0.325 µM in assay [1], 0.00402 µM in assay [2] and 0.0367 µM in assay [3] (setting [4]).

In the case of `CN(C)C(=O)N[C@H]1CC[C@H](CCN2CCC(c3cccc4c3OCO4)CC2)CC1` [Example 75, N-Trans-3-{4-[2-(4-Benzo[1,3]dioxol-4-yl-piperidin-1-yl)-ethyl]cyclohexyl}-1,1-dimethyl-urea], the Ki in assay [1] worked out at 0.0527 µM; in assay [2], 0.0329 µM; in assay [3] (setting [4]), 0.0456 µM.

In the case of `O=C(N[C@H]1CC[C@H](CCN2CCC(c3cccc4c3OCO4)CC2)CC1)C1CCOCC1` [Example 48, Tetrahydro-pyran-4-carboxylic acid-trans-{4-[2-(4-benzo[1,3]dioxol-4-yl-piperidin-1-yl)-ethyl]-cyclohexyl}-amide], the Ki in assay [1] is 0.184 µM; in assay [2], 0.0138 µM; in assay [3] (setting [4]), 0.00952 µM.

`COC(=O)N[C@H]1CC[C@H](CCN2CCC(c3cccc4c3OCO4)CC2)CC1` [Example 18, Trans-{4-[2-(4-Benzo[1,3]dioxol-4-yl-piperidin-1-yl)-ethyl]-cyclohexyl}-carbamic acid methyl ester]: the figures for the Ki in assay [1], in assay [2] and in assay [3] were 0.133 µM, 0.00326 µM and 0.0218 µM, respectively.

Turning to `O=C(CC1(O)CCCCC1)N[C@H]1CC[C@H](CCN2CCC(c3cccc4c3OCO4)CC2)CC1` [Example 21, Trans-N-{4-[2-(4-Benzo[1,3]dioxol-4-yl-piperidin-1-yl)-ethyl]-cyclohexyl}-2-(1-hydroxy-cyclohexyl)-acetamide], the Ki stood at 0.361 µM in assay [1], 0.0104 µM in assay [2] and 0.0157 µM in assay [3].

As to `COCCC(=O)N[C@H]1CC[C@H](CCN2CCC(c3cccc4c3OCO4)CC2)CC1` [Example 2, Trans-N-{4-[2-(4-Benzo[1,3]dioxol-4-yl-piperidin-1-yl)-ethyl]-cyclohexyl}-3-methoxy-propionamide], the results for the Ki in assay [1], in assay [2] and in assay [3] (setting [4]) were 0.427 µM, 0.00582 µM and 0.0382 µM, respectively.

`O=C(N[C@H]1CC[C@H](CCN2CCC(c3cccc4c3OCO4)CC2)CC1)C(F)(F)F` [Example 73, Trans-N-{4-[2-(4-Benzo[1,3]dioxol-4-yl-piperidin-1-yl)-ethyl]-cyclohexyl}-2,2,2-trifluoro-acetamide]: the results for the Ki in assay [1], in assay [2] and in assay [3] (setting [4]) were 0.346 µM, 0.0214 µM and 0.0374 µM, respectively.

For `O=C(C[C@H]1CCCOC1)N[C@H]1CC[C@H](CCN2CCC(c3cccc4c3OCO4)CC2)CC1` [Example 43, Trans-N-{4-[2-(4-Benzo[1,3]dioxol-4-yl-piperidin-1-yl)-ethyl]-cyclohexyl}-2-(R)-tetrahydro-pyran-3-yl-acetamide], the Ki amounted to 0.408 µM in assay [1], 0.0078 µM in assay [2] and 0.0198 µM in assay [3] (setting [4]).

For `O=C(C[C@H]1CCCO1)N[C@H]1CC[C@H](CCN2CCC(c3cccc4c3OCO4)CC2)CC1` [Example 16, Trans-N-{4-[2-(4-Benzo[1,3]dioxol-4-yl-piperidin-1-yl)-ethyl]-cyclohexyl}-2-(R)-tetrahydro-furan-2-yl-acetamide], the Ki in assay [1] was 0.228 µM; in assay [2], 0.0108 µM; in assay [3] it was 0.028 µM.

Take `O=C(N[C@H]1CC[C@H](CCN2CCC(c3cccc4c3OCO4)CC2)CC1)C1CCOC1` (stereo partly drawn) [Example 47, Tetrahydro-furan-3-carboxylic acid-trans-{4-[2-(4-benzo[1,3]dioxol-4-yl-piperidin-1-yl)-ethyl]-cyclohexyl}-amide]: the figures for the Ki in assay [1], in assay [2] and in assay [3] (setting [4]) were 0.165 µM, 0.00761 µM and 0.0241 µM, respectively.

`CC(=O)N[C@H]1CC[C@H](CCN2CCC(c3cccc4c3OCO4)CC2)CC1` [Example 1, Trans-N-{4-[2-(4-Benzo[1,3]dioxol-4-yl-piperidin-1-yl)-ethyl]-cyclohexyl}-acetamide]: the values for the Ki in assay [1], in assay [2] and in assay [3] (setting [4]) were 0.254 µM, 0.00499 µM and 0.0239 µM, respectively.

Turning to `O=C(N[C@H]1CC[C@H](CCN2CCC(c3cccc4c3OCO4)CC2)CC1)c1ccc(Cl)cc1` [Example 36, Trans-N-{4-[2-(4-Benzo[1,3]dioxol-4-yl-piperidin-1-yl)-ethyl]-cyclohexyl}-4-chloro-benzamide], the figures for the Ki in assay [1], in assay [2] and in assay [3] (setting [4]) were 0.147 µM, 0.00636 µM and 0.0218 µM, respectively.

For `O=C(N[C@H]1CC[C@H](CCN2CCC(c3cccc4c3OCO4)CC2)CC1)c1ccc(N2CCOCC2)cc1` [Example 56, Trans-N-{-4-[2-(4-Benzo[1,3]dioxol-4-yl-piperidin-1-yl)-ethyl]-cyclohexyl}-4-morpholin-4-yl-benzamide], the figures for the Ki in assay [1], in assay [2] and in assay [3] (setting [4]) were 0.593 µM, 0.0101 µM and 0.0185 µM, respectively.

In the case of `O=C(CC1CC1)N[C@H]1CC[C@H](CCN2CCC(c3cccc4c3OCO4)CC2)CC1` [Example 8, Trans-N-{4-[2-(4-Benzo[1,3]dioxol-4-yl-piperidin-1-yl)-ethyl]-cyclohexyl}-2-cyclopropyl-acetamide], the values for the Ki in assay [1], in assay [2] and in assay [3] (setting [4]) were 0.303 µM, 0.00254 µM and 0.0176 µM, respectively.

Turning to `O=C(CO)N[C@H]1CC[C@H](CCN2CCC(c3cccc4c3OCO4)CC2)CC1` [Example 65, Trans-N-{4-[2-(4-Benzo[1,3]dioxol-4-yl-piperidin-1-yl)-ethyl]-cyclohexyl}-2-hydroxy-acetamide], the Ki in assay [1] worked out at 0.298 µM; in assay [2], 0.00909 µM; in assay [3] (setting [4]), 0.0214 µM.

Turning to `O=C(N[C@H]1CC[C@H](CCN2CCC(c3cccc4c3OCO4)CC2)CC1)C1CCC1` [Example 54, Cyclobutanecarboxylic acid-trans-{4-[2-(4-benzo[1,3]dioxol-4-yl-piperidin-1-yl)-ethyl]-cyclohexyl}-amide], the Ki in assay [1] was 0.1 µM; in assay [2], 0.008 µM; in assay [3], 0.0169 µM.
